Assays:
Format in all cases: cell-based
[1] = system: Staphylococcus aureus ATCC 10832; assay: Log reduction, multiple cycles, S. aureus ATCC 10832; settings: 30 seconds per cycle
Description: (§1) Referring now to FIG. 17, the experiments described above for FIG. 14 were also performed with additional foams, one foam in which 1 gram of Calcium hypochlorite salt was infused (D100, shown as left column for each cycle), and one foam in which 2 grams of Calcium hypochlorite salt was dispersed (D200, shown as right column for each cycle). […] As discussed additionally below, the minimum concentration is significant because testing identified concentrations of hypochlorite-ion as low as 0.5-0.7 mM to have effective antibacterial and antimicrobial properties. Additional testing was performed to measure the zone of inhibition (ZOI) and Log Reduction of microbes for various samples of released aqueous solutions having various concentrations of hypochlorite ion, as listed in Tables 2 and 3. Table 2 lists ZOI and Log reduction data for a single cycle measured at hold times (exposure duration) of 30 seconds and 5 minutes of bacterial exposure to solution. Table 3 lists ZOI and Log reduction data for multiple cycles (each cycle including introduction of hypochlorite solution, and removal of solution prior to beginning next cycle). In the ZOI experimentation, foam discs having a diameter of 8 millimeters (mm) and a height of 5 mm were each saturated with hypochlorite-ion solution as indicated. Table 3 also lists the initial microbe count in log form (10^X, where X is listed in Table 2), log reduction in microbe count, and ZOI in mm. For the data of Table 3, the initial concentration (1×) of hypochlorite ion in solution was 5.7 mM of hypochlorite ion, which corresponds to 0.041% w/v of Ca(OCl)^2. In the Log reduction experimentation, the microbes were exposed to the respective concentration of solution for 30 seconds per cycle. […] The bold entries in Table 3 are indicative of substantially all microbes being killed. In the biofilm eradication cycles listed in Table 6 below, probes were cultured with microbes and incubated to permit formation of a biofilm on the probe. The probe was then exposed to solutions having various concentrations of Calcium hypochlorite solution for multiple cycles, with each cycle including exposure of the probe to solution for a duration of 5 minutes.

[2] = system: Pseudomonas aeruginosa ATCC 27853; assay: Minimum Bactericidal Concentration (MBC), P. aeruginosa; settings: % w/v Ca(OCl)2 in water
Description: as §1, with “The probe was then exposed to solutions having various concentrations of Calcium hypochlorite solution for multiple cycles, with each cycle including exposure of the probe to solution for a duration of 5 minutes.” left out

[3] = system: Staphylococcus aureus USA 400 (MRSA); assay: Minimum Inhibitory Concentration (MIC), S. aureus USA 400 (MRSA); settings: % w/v Ca(OCl)2 in water
microbes = assay: antibacterial and antimicrobial testing of hypochlorite-ion concentrations (summary statements)
Description: Referring now to FIG. 17, the experiments described above for FIG. 14 were also performed with additional foams, one foam in which 1 gram of Calcium hypochlorite salt was infused (D100, shown as left column for each cycle), and one foam in which 2 grams of Calcium hypochlorite salt was dispersed (D200, shown as right column for each cycle). […] As discussed additionally below, the minimum concentration is significant because testing identified concentrations of hypochlorite-ion as low as 0.5-0.7 mM to have effective antibacterial and antimicrobial properties. Additional testing was performed to measure the zone of inhibition (ZOI) and Log Reduction of microbes for various samples of released aqueous solutions having various concentrations of hypochlorite ion, as listed in Tables 2 and 3. Table 2 lists ZOI and Log reduction data for a single cycle measured at hold times (exposure duration) of 30 seconds and 5 minutes of bacterial exposure to solution. Table 3 lists ZOI and Log reduction data for multiple cycles (each cycle including introduction of hypochlorite solution, and removal of solution prior to beginning next cycle). In the ZOI experimentation, foam discs having a diameter of 8 millimeters (mm) and a height of 5 mm were each saturated with hypochlorite-ion solution as indicated. […]

[4] = system: Pseudomonas aeruginosa ATCC 27853; assay: Minimum Inhibitory Concentration (MIC), P. aeruginosa; settings: % w/v Ca(OCl)2 in water
MRSA [5] = assay: zone of inhibition (ZOI), foam discs saturated with solution, MRSA; settings: 8 mm foam disc saturated with solution
Description: as §1

[6] = system: Staphylococcus aureus USA 400 (MRSA); assay: Log reduction, multiple cycles, S. aureus USA 400 (MRSA); settings: 30 seconds per cycle
Description: as §1

C. alb. [7] = assay: Log reduction, single cycle, C. alb.; settings: for ΔLog - C. alb. 30 sec.: 30 sec. exposure; for ΔLog - C. alb. 5 min.: 5 min. exposure
Description: as §1

C. alb. [8] = assay: zone of inhibition (ZOI), foam discs saturated with solution, C. alb.; settings: 8 mm foam disc saturated with solution
Description: as §1

[9] = system: Pseudomonas aeruginosa ATCC 27853; assay: Log reduction, multiple cycles, P. aeruginosa; settings: 30 seconds per cycle
Description: as §1

MRSA [10] = assay: Log reduction, single cycle, MRSA; settings: for ΔLog - MRSA 30 sec.: 30 sec. exposure; for ΔLog - MRSA 5 min.: 5 min. exposure
Description: as §1

[11] = Sample Dilution 1x (5.7 mM hypochlorite ion, 0.041% w/v Ca(OCl)2)
[12] = Sample Dilution 2x of 5.7 mM hypochlorite ion
[13] = Sample Dilution 4x of 5.7 mM hypochlorite ion
[14] = Sample Dilution 8x of 5.7 mM hypochlorite ion (lowest concentration, 0.7 mM)

## hypochlorite ion [OCl^− Solutions]
[1]; [11]
  Log Reduction Staphylococcus aureus ATCC 10832 1 Cycle: 3.21
  Log Reduction Staphylococcus aureus ATCC 10832 3 Cycles: 2.82
  Log Reduction Staphylococcus aureus ATCC 10832 5 Cycles: 2.66
[1]; [12]
  Log Reduction Staphylococcus aureus ATCC 10832 1 Cycle: 3.21
  Log Reduction Staphylococcus aureus ATCC 10832 3 Cycles: 2.82
  Log Reduction Staphylococcus aureus ATCC 10832 5 Cycles: 2.66
[1]; [13]
  Log Reduction Staphylococcus aureus ATCC 10832 1 Cycle: 3.21
  Log Reduction Staphylococcus aureus ATCC 10832 3 Cycles: 2.82
  Log Reduction Staphylococcus aureus ATCC 10832 5 Cycles: 2.66
[1]; [14]
  Log Reduction Staphylococcus aureus ATCC 10832 1 Cycle: 3.21
  Log Reduction Staphylococcus aureus ATCC 10832 3 Cycles: 2.82
  Log Reduction Staphylococcus aureus ATCC 10832 5 Cycles: 2.66
[2]; 1 Cycle
  Minimum Bactericidal Concentration (MBC) 1 Cycle: <0.005% w/v
[2]; 3 Cycles
  Minimum Bactericidal Concentration (MBC) 3 Cycles: <0.005% w/v
[2]; 5 Cycles
  Minimum Bactericidal Concentration (MBC) 5 Cycles: <0.005% w/v
[3]; 1 Cycle
  Minimum Inhibitory Concentration (MIC) 1 Cycle: <0.005% w/v
[3]; 3 Cycles
  Minimum Inhibitory Concentration (MIC) 3 Cycles: <0.005% w/v
[3]; 5 Cycles
  Minimum Inhibitory Concentration (MIC) 5 Cycles: <0.005% w/v
microbes
  lowest concentrations identified to have effective antibacterial and antimicrobial properties: 0.5 to 0.7 mM
microbes; five (5) cycles at the lowest concentration (0.7 mM), 30 seconds per cycle
  killing of microbes in Log reduction experimentation: killed substantially all microbes present
[4]; 1 Cycle
  Minimum Inhibitory Concentration (MIC) 1 Cycle: <0.005% w/v
[4]; 3 Cycles
  Minimum Inhibitory Concentration (MIC) 3 Cycles: <0.005% w/v
[4]; 5 Cycles
  Minimum Inhibitory Concentration (MIC) 5 Cycles: <0.005% w/v
MRSA [5]; 0.8 mM HOCl/OCl−
  ZOI, D in mm MRSA: 0.0 mm
MRSA [5]; 1.9 mM HOCl/OCl−
  ZOI, D in mm MRSA: 0.0 mm
MRSA [5]; 3.1 mM HOCl/OCl−
  ZOI, D in mm MRSA: 0.0 mm
MRSA [5]; 4.0 mM HOCl/OCl−
  ZOI, D in mm MRSA: 0.0 mm
MRSA [5]; 10.7 mM HOCl/OCl−
  ZOI, D in mm MRSA: 13.0 mm
MRSA [5]; 15.7 mM HOCl/OCl−
  ZOI, D in mm MRSA: 13.0 mm
[6]; [11]
  Log Reduction Staphylococcus aureus USA 400 (MRSA) 1 Cycle: 4.15
  Log Reduction Staphylococcus aureus USA 400 (MRSA) 3 Cycles: 3.63
  Log Reduction Staphylococcus aureus USA 400 (MRSA) 5 Cycles: 3.91
[6]; [12]
  Log Reduction Staphylococcus aureus USA 400 (MRSA) 1 Cycle: 4.15
  Log Reduction Staphylococcus aureus USA 400 (MRSA) 3 Cycles: 3.63
  Log Reduction Staphylococcus aureus USA 400 (MRSA) 5 Cycles: 3.91
[6]; [13]
  Log Reduction Staphylococcus aureus USA 400 (MRSA) 1 Cycle: 4.15
  Log Reduction Staphylococcus aureus USA 400 (MRSA) 3 Cycles: 3.63
  Log Reduction Staphylococcus aureus USA 400 (MRSA) 5 Cycles: 3.91
[6]; [14]
  Log Reduction Staphylococcus aureus USA 400 (MRSA) 1 Cycle: 4.15
  Log Reduction Staphylococcus aureus USA 400 (MRSA) 3 Cycles: 3.63
  Log Reduction Staphylococcus aureus USA 400 (MRSA) 5 Cycles: 3.91
C. alb. [7]; 0.8 mM HOCl/OCl−
  ΔLog - C. alb. 30 sec.: 2.87
  ΔLog - C. alb. 5 min.: >7.18
C. alb. [7]; 1.9 mM HOCl/OCl−
  ΔLog - C. alb. 30 sec.: 2.94
  ΔLog - C. alb. 5 min.: 3.77
C. alb. [7]; 3.1 mM HOCl/OCl−
  ΔLog - C. alb. 30 sec.: 3.08
  ΔLog - C. alb. 5 min.: >7.18
C. alb. [7]; 4.0 mM HOCl/OCl−
  ΔLog - C. alb. 30 sec.: 3.94
  ΔLog - C. alb. 5 min.: >7.18
C. alb. [7]; 10.7 mM HOCl/OCl−
  ΔLog - C. alb. 30 sec.: 7.18
  ΔLog - C. alb. 5 min.: >7.18
C. alb. [7]; 15.7 mM HOCl/OCl−
  ΔLog - C. alb. 30 sec.: 3.50
  ΔLog - C. alb. 5 min.: >7.18
C. alb. [8]; 0.8 mM HOCl/OCl−
  ZOI, D in mm C. alb.: 15.0 mm
C. alb. [8]; 1.9 mM HOCl/OCl−
  ZOI, D in mm C. alb.: 24.3 mm
C. alb. [8]; 3.1 mM HOCl/OCl−
  ZOI, D in mm C. alb.: 22.0 mm
C. alb. [8]; 4.0 mM HOCl/OCl−
  ZOI, D in mm C. alb.: 34.3 mm
C. alb. [8]; 10.7 mM HOCl/OCl−
  ZOI, D in mm C. alb.: 45.7 mm
C. alb. [8]; 15.7 mM HOCl/OCl−
  ZOI, D in mm C. alb.: 44.3 mm
[9]; [11]
  Log Reduction Pseudomonas aeruginosa ATCC 27853 1 Cycle: −0.16
  Log Reduction Pseudomonas aeruginosa ATCC 27853 3 Cycles: 5.87
  Log Reduction Pseudomonas aeruginosa ATCC 27853 5 Cycles: 5.83
[9]; [12]
  Log Reduction Pseudomonas aeruginosa ATCC 27853 1 Cycle: −0.98
  Log Reduction Pseudomonas aeruginosa ATCC 27853 3 Cycles: 5.87
  Log Reduction Pseudomonas aeruginosa ATCC 27853 5 Cycles: 5.83
[9]; [13]
  Log Reduction Pseudomonas aeruginosa ATCC 27853 1 Cycle: −0.48
  Log Reduction Pseudomonas aeruginosa ATCC 27853 3 Cycles: 3.92
  Log Reduction Pseudomonas aeruginosa ATCC 27853 5 Cycles: 5.83
[9]; [14]
  Log Reduction Pseudomonas aeruginosa ATCC 27853 1 Cycle: −1.11
  Log Reduction Pseudomonas aeruginosa ATCC 27853 3 Cycles: 1.26
  Log Reduction Pseudomonas aeruginosa ATCC 27853 5 Cycles: 5.39
MRSA [10]; 0.8 mM HOCl/OCl−
  ΔLog - MRSA 30 sec.: 2.96
  ΔLog - MRSA 5 min.: 2.99
MRSA [10]; 1.9 mM HOCl/OCl−
  ΔLog - MRSA 30 sec.: 2.93
  ΔLog - MRSA 5 min.: 4.09
MRSA [10]; 3.1 mM HOCl/OCl−
  ΔLog - MRSA 30 sec.: 3.55
  ΔLog - MRSA 5 min.: >7.13
MRSA [10]; 4.0 mM HOCl/OCl−
  ΔLog - MRSA 30 sec.: 5.52
  ΔLog - MRSA 5 min.: >7.13
MRSA [10]; 10.7 mM HOCl/OCl−
  ΔLog - MRSA 30 sec.: >6.93
  ΔLog - MRSA 5 min.: >7.13
MRSA [10]; 15.7 mM HOCl/OCl−
  ΔLog - MRSA 30 sec.: >6.93
  ΔLog - MRSA 5 min.: >7.13
